Measurements reported in ChEMBL document CHEMBL1144669, “Pyridazinone derivatives: design, synthesis, and in vitro vasorelaxant activity” (2008).

Experiment: Vasorelaxant effect in rabbit pulmonary artery assessed as inhibition of KCl-induced contraction at 100 uM
Format: functional
Conditions: Oryctolagus cuniculus

Row | Compound | inhibition at 100 µM [%]
1 | N#Cc1c(-c2cccc([N+](=O)[O-])c2)cc(-c2cccc(Nc3ccc(=O)[nH]n3)c2)[nH]c1=O | 9.1
2 | CCOc1ccc2nc(C)cc(Nc3ccc(C4=NNC(=O)CC4)c(O)c3)c2c1 | 36.2
3 | COc1ccc2nc(C)cc(Nc3ccc(C4=NNC(=O)CC4)c(C)c3)c2c1 | 25
4 | COc1ccc2nc(C)cc(Nc3ccc(C4=NNC(=O)CC4C)cc3)c2c1 (stereo unspecified) | 21.5
5 | Cc1ccc2nc(C)cc(Nc3ccc(C4=NNC(=O)CC4)c(O)c3)c2c1 | 18.5
6 | CCOC(=O)c1c[nH]c2ccc(C3=NNC(=O)CC3C)cc2c1=O (stereo unspecified) | 14.5
7 | CCOC(=O)c1c[nH]c2ccc(C3=NNC(=O)CC3)cc2c1=O | 14.5
8 | COc1ccc2nc(C)cc(Nc3ccc(C4=NNC(=O)CC4)c(O)c3)c2c1 | 34.3
9 | N#Cc1c(-c2cccnc2)cc(-c2cccc(Nc3ccc(=O)[nH]n3)c2)[nH]c1=O | 8.17
10 | Cc1ccc2nc(C)cc(Nc3ccc(C4=NNC(=O)CC4C)cc3)c2c1 (stereo unspecified) | 22.7
11 | Cc1[nH]c(=O)c(C#N)cc1-c1ccncc1 [MILRINONE] | 60.5
